# PMC12703733, “Probing Guanidino Pendant or Bridged Groups in Cyclic Antimicrobial Peptides Derived from Temporin L: A Strategy to Improve Efficacy against Gram-Negative Bacteria” (Journal of Medicinal Chemistry, 2025)
# Read-outs that look alike come from different tables or passages of the source. Bridge positions count the residues as written; N and C are the ends. Square brackets hold non-standard residues; d marks the D form. Ends that are not written are not given here. Phe(4-guanidino) = N=C(N)Nc1ccc(C[C@H](N)C(=O)O)cc1
# B1: peptide 2 (cyclic Temporin L analogue; TLcyc with D-Glu at position 10) (peptide, UniProt P57104 1-13, looked up)
# peptide: FVPWFKKF[dL][dE]RIL-NH2
# modifications: lactam 6-10
# notes: peptide 2 is the [Pro3,DLeu9]TL frame cyclised between positions 6 (Lys) and 10 (D-Glu); Free N-terminal amine; also called compound 2; source: synthetic peptide (Fmoc-based US-SPPS, RP-HPLC purified, >97%)
# B2: peptide 7 (cyclic Temporin L analogue with a guanidino pendant at position 4 of the Pro3 ring) (peptide, UniProt P57104 1-13, looked up)
# peptide: FV[Pro(4-guanidino)]WFKKF[dL][dE]RIL-NH2
# modifications: lactam 6-10
# notes: peptide 7 is peptide 2 with (4-guanidino)Pro in place of Pro3; also called compound 7; source: synthetic peptide (Fmoc-based US-SPPS, RP-HPLC purified, >97%)
# B3: peptide 6 (cyclic Temporin L analogue with a guanidino pendant on the para position of Phe1) (peptide, UniProt P57104 1-13, looked up)
# peptide: [Phe(4-guanidino)]VPWFKKF[dL][dE]RIL-NH2
# modifications: lactam 6-10; N-terminus assumed
# SMILES: CC[C@H](C)[C@H](NC(=O)[C@H](CCCNC(=N)N)NC(=O)[C@H]1CCC(=O)NCCCC[C@H](NC(=O)[C@H](Cc2ccccc2)NC(=O)[C@H](Cc2c[nH]c3ccccc23)NC(=O)[C@@H]2CCCN2C(=O)[C@@H](NC(=O)[C@@H](N)Cc2ccc(NC(=N)N)cc2)C(C)C)C(=O)N[C@@H](CCCCN)C(=O)N[C@@H](Cc2ccccc2)C(=O)N[C@H](CC(C)C)C(=O)N1)C(=O)N[C@@H](CC(C)C)C(N)=O
# notes: peptide 6 is peptide 2 with (p-guanidino)Phe in place of Phe1; also called compound 6; source: synthetic peptide (Fmoc-based US-SPPS, RP-HPLC purified, >97%)
# Key:
# [1] = background value; cited from earlier work
# [2] = format: cell-based
# Description: (§1) For the evaluation of peptides’ cytotoxicity, the human immortalized keratinocytes (HaCaT cells), purchased from AddexBio (San Diego, CA, USA), and BEAS-2B were used. HaCaT cells were cultured in Dulbecco’s modified Eagle’s medium supplemented with 4 mM glutamine (DMEM), 10% heat-inactivated fetal bovine serum (FBS), and 0.1 mg/mL of penicillin and streptomycin, at 37 °C and 5% CO2. BEAS-2B cells were cultured in RPMI, supplemented with 2 mM glutamine (DMEM), 10% heat-inactivated fetal bovine serum (FBS), 1 mM sodium pyruvate, and 0.1 mg/mL of penicillin and streptomycin, at 37 °C and 5% CO2. Cytotoxicity was tested in vitro using a colorimetric assay that relies on the intracellular reduction of the yellow 3-(4,5-dimethylthiazol-2-yl)-2,5-diphenyltetrazolium bromide salt (MTT) by mitochondrial dehydrogenases of metabolically active cells in formazan crystals (purple). About 4 × 10^4 HaCaT and BEAS-2B cells, suspended in DMEM supplemented with 2% FBS, were plated in triplicate wells of a 96-well microtiter plate. The plate was incubated overnight at 37 °C and 5% CO2. Then, the cells were treated with different concentrations of the peptide (from 100 to 3.12 μM) in a fresh serum-free medium for 2 h and for a longer time (24 h). Following peptide treatment, the medium was removed, and MTT (0.5 mg/mL) solution in Hank’s buffer (136 mM NaCl, 4.2 mM Na2HPO4, 4.4 mM KH2PO4, 5.4 mM KCl, 4.1 mM NaHCO3, pH 7.2, supplemented with 20 mM D-glucose) was added to each well of the plate, that was then incubated for 4 h at 37 °C and 5% CO2. The purple formazan crystals were dissolved using acidified 2-propanol and a microplate reader (Infinite M200; Tecan, Salzburg, Austria) was used to measure the absorbance of each well at 570 nm. The percentage of cell viability was calculated compared to the control, which consisted of cells without any peptide treatment (corresponding to 100% viability) and all data represent the mean of three independent experiments ± SEM.
# P. aeruginosa ATCC 27853 = assay: microbe, parasite or virus in culture; format: cell-based; details: ATCC 27853
# Description: (§2) Bacterial strains used in this study were the Gram-positive S. aureus ATCC 25923, S. epidermidis ATCC 12228, B. megaterium BM11, S. [NT] 27591, E. faecalis ATCC 29212 and the Gram-negative E. coli ATCC 25922, P. aeruginosa ATCC 27853, A. baumannii ATCC 19606, E. coli D21 and P. aeruginosa PAO1. […] Bacterial cells in the mid log phase were diluted in Muller Hinton (MH) at a concentration of 2 × 10^6 cell/mL. […] Ciprofloxacin was used as antibiotic control. The plate was then incubated at 37 °C. MICs were obtained from three identical readings of four independent experiments.
# [3] = test system: S. epidermidis ATCC 12228; assay: microbe, parasite or virus in culture; format: cell-based; details: ATCC 12228
# Description: as §2
# E. coli ATCC 25922 = assay: microbe, parasite or virus in culture; format: cell-based; details: ATCC 25922
# Description: as §2
# S. aureus ATCC 25923 = assay: microbe, parasite or virus in culture; format: cell-based; details: ATCC 25923
# Description: as §2
# E. coli D21 = assay: microbe, parasite or virus in culture; format: cell-based; details: D21
# Description: as §2
# E. faecalis ATCC 29212 = assay: microbe, parasite or virus in culture; format: cell-based; details: ATCC 29212
# Description: as §2
# A. baumannii ATCC 19606 = assay: microbe, parasite or virus in culture; format: cell-based; details: ATCC 19606
# Description: as §2
# B. megaterium BM11 = assay: microbe, parasite or virus in culture; format: cell-based; details: BM11
# Description: as §2
# S. agalactiae ATCC 27591 = assay: microbe, parasite or virus in culture; format: cell-based; details: ATCC 27591
# Description: as §2
# circular dichroism = details: water; pH ns; 25 °C; 150 uM
# [4] = format: cell-based, human; details: human
# Description: as §1
# in vitro = in vitro ADME
# Description: Peptide stability was evaluated by modifying previously described procedures. , The assays were performed in human serum and in the presence of proteolytic enzymes such as trypsin and chymotrypsin. For human serum stability, 2 mM peptide stock solutions were prepared in water and mixed with human serum (from male AB plasma, USA origin, sterile-filtered, Merck/Sigma-Aldrich, USA) to obtain a final concentration of 200 μM [human plasma/stock solution (9:1, v/v)]. The mixtures were incubated at 37 ± 1 °C, and 50 μL aliquots were taken at predetermined time intervals (0, 1, 2, 4, 8, and 24 h). Protease activity was quenched by adding 100 μL of acetonitrile (MeCN). The resulting cloudy suspensions were cooled to 4 °C for 30 min and centrifugated at 12,000 rpm for 10 min to remove the serum proteins. Then, the supernatants were analyzed by analytical HPLC (Shimadzu Nexera Liquid Chromatograph LC-30AD) which was equipped with a Phenomenex Kinetex reversed-phase column (C18, 5 μm, 100 Å, 150 mm × 4.6 mm) with a flow rate of 1 mL/min using a gradient of MeCN (0.1% TFA) in water (0.1% TFA), from 10 to 70% over 15 min, and UV detection at 220 nm. For enzyme stability, each peptide peptide (200 μM) was incubated with trypsin (0.5 μM) in PBS 1× (pH 7.2) or with chymotrypsin (0.005 μM) in Tris–HCl (100 mM, pH 7.8). Samples (50 μL) were collected at 0, 1, 2, 4, and 24 h, quenched with 0.5% TFA in water, and analyzed by HPLC under chromatographic conditions as described above. All experiments were conducted in triplicate. The percentage of intact peptides at each time point was determined by integrating the corresponding HPLC peak areas.
# [5] = biological target: the molecule itself; assay: Thioflavin T fluorescence; LUVs of DOPE:DOPG:CL (65:23:12, mol/mol/mol) mimicking the Gram-negative membrane, 100 uM lipid, titrated with 5-50 uM peptide; 100 mM NaCl, 10 mM Tris-HCl, 25 uM ThT, pH 7.4; peptide oligomerisation within the vesicles
# [6] = isolated enzyme trypsin, pH 7.2
molecule,measurement,setting,value
N=C(N)NCCC[C@H](N)C(=O)O [arginine],pK a1,[1],2.18
same,pK a2,[1],9.09
same,pK a3,[1],13.20
NCCCC[C@H](N)C(=O)O [lysine],pK a,[1],10.94
"CC[C@H](C)[C@H](NC(=O)[C@H](CCCNC(=N)N)NC(=O)[C@H]1CCCCNC(=N)NCCCC[C@H](NC(=O)[C@H](Cc2ccccc2)NC(=O)[C@H](Cc2c[nH]c3ccccc23)NC(=O)[C@@H]2CCCN2C(=O)[C@@H](NC(=O)[C@@H](N)Cc2ccccc2)C(C)C)C(=O)N[C@@H](CCCCN)C(=O)N[C@@H](Cc2ccccc2)C(=O)N[C@H](CC(C)C)C(=O)N1)C(=O)N[C@@H](CC(C)C)C(N)=O [Peptide 12, FVPWF{KKFlk}RIL]","viability at 2 h, 3.12 µM",[2]; Cell viability (%),106%
same,"viability at 2 h, 6.25 µM",[2]; Cell viability (%),104%
same,"viability at 2 h, 12.5 µM",[2]; Cell viability (%),56%
same,"viability at 2 h, 25 µM",[2]; Cell viability (%),14%
same,"viability at 2 h, 50 µM",[2]; Cell viability (%),4%
same,"viability at 2 h, 100 µM",[2]; Cell viability (%),4%
same,"viability at 24 h, 3.12 µM",[2]; Cell viability (%),93%
same,"viability at 24 h, 6.25 µM",[2]; Cell viability (%),86%
same,"viability at 24 h, 12.5 µM",[2]; Cell viability (%),66%
same,"viability at 24 h, 25 µM",[2]; Cell viability (%),14%
same,"viability at 24 h, 100 µM",[2]; Cell viability (%),0%
same,viability at 12.5 µM,[2]; cell viability,~60%
same,MIC,P. aeruginosa ATCC 27853,12.5 µM
same,MIC,[3],1.56 µM
same,MIC,E. coli ATCC 25922,6.25 µM
same,MIC,S. aureus ATCC 25923,6.25 µM
same,MIC,E. coli D21,3.12 µM
same,MIC,E. faecalis ATCC 29212,6.25 µM
same,MIC,A. baumannii ATCC 19606,1.56 µM
same,MIC,B. megaterium BM11,0.39 µM
same,MIC,S. agalactiae ATCC 27591,1.56 µM
same,helicity,circular dichroism,63%
same,CC50 at 24 h,[4]; CC50,19.6 µM
same,"viability at 2 h, 3.12 µM",[4]; Cell viability (%),101%
same,"viability at 2 h, 6.25 µM",[4]; Cell viability (%),103%
same,"viability at 2 h, 12.5 µM",[4]; Cell viability (%),88%
same,"viability at 2 h, 25 µM",[4]; Cell viability (%),47%
same,"viability at 2 h, 50 µM",[4]; Cell viability (%),11%
same,"viability at 2 h, 100 µM",[4]; Cell viability (%),10%
same,"viability at 24 h, 3.12 µM",[4]; Cell viability (%),100 ± 1%
same,"viability at 24 h, 6.25 µM",[4]; Cell viability (%),101 ± 2%
same,"viability at 24 h, 12.5 µM",[4]; Cell viability (%),90 ± 4%
same,"viability at 24 h, 25 µM",[4]; Cell viability (%),28 ± 4%
same,"viability at 24 h, 50 µM",[4]; Cell viability (%),2 ± 1%
same,"viability at 24 h, 100 µM",[4]; Cell viability (%),3 ± 1%
same,"remaining at 4 h, 200 μM","in vitro; isolated enzyme chymotrypsin, pH 7.8",~40%
same,"remaining at 4 h, 200 μM",in vitro; [6],~80%
same,"remaining at 24 h, 200 μM",in vitro; [6],~35%
B1,% aggregation at P/L 0.5,[5],~60%
B2,% aggregation at P/L 0.5,[5],~60%
B3,% aggregation at P/L 0.5,[5],~40%
